Data set [1] has as its system reconstituted human epidermis stimulated with TNF-α and IFN-γ. Briefly: Reconstituted human epidermis (RHE) vitiligo model: morphological analysis after H/E staining. In kind it is cell-based. The settings on record: topical on RHE, 48 h. The method, then:
To generate the morphological and functional aspects of vitiligo, in vitro reconstituted epidermis with Normal Human Epidermal Keratinocytes (NHEK) and Normal Human Epidermal Melanocytes, darkly pigmented (NHEM-DP) are exposed to a cytokine cocktail (TNF-α and IFN-γ). The cytokine cocktail is applied during 48 hours in the culture medium of epidermis. NHEK are isolated from the fore skin of 3 Caucasian donors, and NHEM-DP are isolated from 1 donor. The tissues are cultured at the air-liquid interface in Epilife medium (Fisher Scientific, M-EPI-500-A) containing supplements and antibiotics (Gentamycin, Fisher Scientific, 15710-049). […] Three epidermis samples per condition are fixed in 4% formaldehyde solution and embedded in paraffin for further analysis (morphology analysis, melanin and melanocytes localisation/quantification). […] The tissue morphology is analyzed through a Hematoxylin/Eosin (H/E) staining. […] Formulations containing four doses of BETi1, the BETi1 vehicle (placebo) and JAK inhibitor, were evaluated in RHE TNF-α/IFN-γ vitiligo model as described in Experimental section Methods C and D and representative images of H/E stained epidermis sections are shown in FIG. 4A-H. Treatments of the RHEs with each of the formulations were initiated at day 9 of their reconstitution process. […]

The next data set has as its system MMP-9. Briefly: RHE vitiligo model: MMP-9 secretion by ELISA. The settings on record: for reduction in secreted MMP-9: 1% treatment, vs stimulated/untreated control or vehicle; for MMP-9 (% stimulated ctl) Mean / MMP-9 (% stimulated ctl): TNF-α/IFN-γ stimulated RHE; for MMP-9 (% stimulated ctl) Mean / MMP-9 (% stimulated ctl) / Mean conc MMP-9 / Conc MMP-9: 48 h; for MMP-9 (% stimulated ctl) / Conc MMP-9: replicates N1-N3; for Mean conc MMP-9 / Conc MMP-9: culture medium of RHE, TNF-α 12 ng/ml/IFN-γ 12 ng/ml. It is filed as cell-based, human. The method, then: […] Three epidermis samples per condition are fixed in 4% formaldehyde solution and embedded in paraffin for further analysis (morphology analysis, melanin and melanocytes localisation/quantification). Three other epidermis samples per condition are put in a specific lysis buffer for total RNA extraction.
At the end of the treatments, culture media is collected (from 3 epidermis per condition), aliquoted and stored at −20° C. until use in ELISA assays. The quantity of MMP-9 secreted by the epidermis at the end of the treatments is analysed using the human MMP-9 Quantikine ELISA kit (Bio-Techne; DMP900). The secretion of E-cadherin in culture media is measured using to human E-cadherin Quantikine ELISA kit (Bio-Techne; DCADE0) dedicated for the measurement of natural human E-cadherin in culture supernates, serum, plasma, urine, and saliva.
The ELISAs are performed following the instructions of the supplier. The quantities of MMP-9 and E-cadherin are determined by comparisons with standard curves performed with recombinant human MMP-9 or E-cadherin provided in the kits.
Quantification of secretion of MMP-9 and E-cadherin by ELISA from collected culture medium was conducted in accordance with Method E. The results, shown in FIG. 5A and FIG. 5B are based on Tables 23 and 24 respectively and presented in percentage of release in comparison to the stimulated control. A statistical analysis (student t-test) was performed to compare the effects of the treatments with the formulations to the vehicle (with $: 0.05>p>0.01; $$: 0.01>p>0.001; and $$$: p<0.001). The same analysis was performed to compare the effects of the vehicle and of the unstimulated control to the stimulated control (with *: 0.05>p>0.01; **: 0.01>p>0.001; and ***: p<0.001). The analysis was performed from three replicates per condition (n=3). The mean of the three values and the standard deviation are presented on the histograms in FIG. 5A and FIG. 5B. As shown in Table 21 and FIG. 5A and consistent with the results of Part A, MMP-9 secretion was increased following the stimulation with the cytokines, which validates the assay.

Where “and” joins values, the source holds several entries; their conditions need not be identical. Equal values may be shown once. Where only a bound is given, the exact number is not on record here.

As for `Cn1cc(-c2cccc(O)c2Oc2ccccc2)c2cc[nH]c2c1=O` [BETi1], in data set [1], the “morphological alteration of RHE (H/E staining)” value is listed as “did not induce any morphological alteration”. The “reduction in secreted MMP-9” value in the data set with MMP-9 is on record as ~95%; with MMP-9 (listed as BETi1 1%), > 95%; in the data set on MMP-9 (listed as BETi 1%) it was “about 94.7%”. For the same compound, the “MMP-9 (% stimulated ctl) Mean” value is recorded as 137% in the data set with MMP-9 (BETi1 0.001%), 113% with MMP-9 (BETi1 0.01%), 10% with MMP-9 (BETi1 0.1%) and 5% in the data set with MMP-9 (BETi1 1%). Moreover, the “MMP-9 (% stimulated ctl)” value in the data set on MMP-9 (BETi1 0.001%) was 140% and 138% and 134%; in the data set with MMP-9 (BETi1 0.01%), 113% and 104% and 122%; with MMP-9 (BETi1 0.1%), 9% (2×) and 12%; in the data set on MMP-9 (BETi1 1%), 5% (2×) and 6%. For the same compound, the “Mean conc MMP-9” value was 24.1 ng/mL in the data set with MMP-9 (BETi1 0.001%), 19.8 ng/mL with MMP-9 (BETi1 0.01%), 1.7 ng/mL in the data set on MMP-9 (BETi1 0.1%) and 0.9 ng/mL in the data set on MMP-9 (BETi1 1%). Moreover, the “Conc MMP-9” value in the data set with MMP-9 (BETi1 0.001%) is 24.5 ng/mL and 24.1 ng/mL and 23.5 ng/mL; with MMP-9 (BETi1 0.01%), 19.9 ng/mL and 18.2 ng/mL and 21.4 ng/mL; in the data set on MMP-9 (BETi1 0.1%), 1.5 ng/mL and 2.0 ng/mL and 1.6 ng/mL; in the data set on MMP-9 (BETi1 1%), 0.9 ng/mL and 1.1 ng/mL and 0.8 ng/mL.

For the origin of these results see patent publication US20250339409A1, “USES OF PAN BET INHIBITORS” (VYNE THERAPEUTICS INC., priority 2021, published 2025).
